From ChEMBL document CHEMBL4402557, “Nidufexor (LMB763), a Novel FXR Modulator for the Treatment of Nonalcoholic Steatohepatitis” (J Med Chem, 2020) come the findings set out here.

Values after ≈ are worked out from the molar mass of the structure shown. Active and inactive are the calls of the source.

Series [1] in a line: Solubility of compound in pH 6.5 FASSIF at 2 mg measured for 5 to 60 mins by UV spectroscopic method. The format is physicochemical.
Series [2] has as its target T1, Bile acid receptor (Homo sapiens, UniProt Q96RI1).
T1 sequence (Q96RI1 whole entry): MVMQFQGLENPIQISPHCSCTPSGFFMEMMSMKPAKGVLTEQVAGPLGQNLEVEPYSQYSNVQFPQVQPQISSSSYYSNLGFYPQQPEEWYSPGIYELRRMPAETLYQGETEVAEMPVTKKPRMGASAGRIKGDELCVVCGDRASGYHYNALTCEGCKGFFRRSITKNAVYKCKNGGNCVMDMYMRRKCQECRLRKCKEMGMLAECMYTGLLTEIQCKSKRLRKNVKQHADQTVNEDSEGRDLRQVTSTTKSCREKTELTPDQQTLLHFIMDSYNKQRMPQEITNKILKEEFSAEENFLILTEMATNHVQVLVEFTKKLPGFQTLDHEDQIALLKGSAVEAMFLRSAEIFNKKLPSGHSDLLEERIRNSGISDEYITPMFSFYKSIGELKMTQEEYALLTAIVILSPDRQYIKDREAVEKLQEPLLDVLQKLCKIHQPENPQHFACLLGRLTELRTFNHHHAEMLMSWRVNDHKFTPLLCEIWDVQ
The experiment in a line: Agonist activity at GST-tagged human FXR-LBD (193 to 472 residues) using biotinylated SRC-1 peptide as substrate incubated for 1 hrs by HTRF assay. Background: TR-FRET usually uses a lanthanide donor and a delayed reading to cut background.

The target in series [3] is T1, Bile acid receptor. Nature of the series: Agonist activity at FXR transfected in human HEK293T cells o-expressing pGL3/hBSEP/luc incubated for 24 hrs by Steady-Glo reagent based luciferase reporter gene assay. The series is classed as cell-based. For orientation: Reporter assays use an easily measured gene product as a stand-in for the process of interest.
For a further series, the system named is Mus musculus. The experiment in a line: Anti Steato-hepatitic activity in STZ/HFD induced C57BL/6J mouse STAM model assessed as reduction in NAS at 25 mg/kg, po administered via oral gavage once daily for 3 weeks and measured on 9 week by H and E staining based assay. The series is classed as functional, organism-based.
The nature of series [4]: Permeability of the compound by PAMPA. The series is classed as ADME. (In PAMPA a lipid-coated filter parts donor from acceptor wells.)
Series [5] can be described thus: Clearance in Wistar rat at 3 mg/kg, iv. The format is ADME, organism-based. The conditions noted are these: in vivo.
A short description of series [6]: Volume of distribution at steady state in Wistar rat at 3 mg/kg, iv. The series is classed as ADME, organism-based. The conditions noted are these: in vivo, read-out: Vdss.
A short description of series [7]: Half life in Wistar rat at 3 mg/kg, iv. The conditions noted are these: in vivo. The format is ADME, organism-based.
Series [8] is described as follows: Oral bioavailability in Wistar rat at 10 mg/kg in presence of PEG 300/D5W(3:1). The format is ADME, organism-based. The conditions noted are these: in vivo.
A short description of series [9]: Oral bioavailability in Wistar rat at 10 mg/kg in presence of 0.5% CMC/0.5% Tween 80. The series is classed as ADME, organism-based. The conditions noted are these: in vivo.
Series [10] is described as follows: Oral bioavailability in Wistar rat at 10 mg/kg in presence of TRIS salt. The format is ADME, organism-based. The conditions noted are these: in vivo.
Series [11] is described as follows: Oral bioavailability in Wistar rat at 100 mg/kg in presence of TRIS salt. The series is classed as ADME, organism-based. The conditions noted are these: in vivo.
Series [12] can be described thus: Lipophilicity, logD of compound at pH 6.8. The series is classed as physicochemical. The conditions noted are these: buffer.

Usually solubility stands for the dissolved amount per volume that the medium holds. The low end stands for little dissolved substance, the high end for much dissolved substance. Turning to `CC(=O)NCCN(Cc1ccccc1)C(=O)c1nn(C)c2c1COc1ccc(C3CC3)cc1-2`, the concentration in solution in [1] (solubility) was 9 µM (≈ 4 µg/mL).
As to `CC(=O)NCCN(Cc1ccc(F)cc1)C(=O)c1nn(C)c2c1COc1ccc(Br)cc1-2`, the concentration in solution in series [1] (solubility) came to 41 µM (≈ 20.6 µg/mL).
Broadly, the EC50 is the concentration that produces a half-maximal response. As for `CC(=O)NCCN(C(=O)c1nn(C)c2c1COc1ccc(Cl)cc1-2)C(C)c1ccccc1` (racemic), the EC50 at Bile acid receptor [2] and on Bile acid receptor [3] was over 10 µM each time.
For `CC(=O)NCCN(Cc1ccccc1)C(=O)c1n[nH]c2c1COc1ccc(Br)cc1-2`, the concentration for a half-maximal effect (EC50) on Bile acid receptor [2] is over 10 µM; on Bile acid receptor [3], 11 µM.
`CC(=O)NCCN(C)C(=O)c1nn(C)c2c1COc1ccccc1-2` had an EC50 at Bile acid receptor [2] of over 10 µM.
Turning to `CC(=O)NCCN(Cc1ccccc1)C(=O)c1nn(C)c2c1COc1ccccc1-2`, the solubility in series [1] is over 175 µM.
The same measure, in the same setting: the result for `CC(=O)NCCN(Cc1ccccn1)C(=O)c1nn(C)c2c1COc1ccc(Br)cc1-2` reads under 2 µM.
With `CC(=O)NCCNC(=O)c1nn(C)c2c1COc1ccccc1-2`, the EC50 on Bile acid receptor [2] is over 10 µM.
Turning to `CC(=O)NCCN(Cc1ccccc1)C(=O)c1c2c(nn1C)-c1cc(Br)ccc1OC2`, the EC50 is 6 µM at Bile acid receptor [2] and over 20 µM at Bile acid receptor [3].
In [1], `CC(=O)NCCN(Cc1cccc(F)c1)C(=O)c1nn(C)c2c1COc1ccc(Br)cc1-2` registered a solubility of 80 µM (≈ 40.1 µg/mL).
With `CC(=O)NCCN(Cc1ccccc1)C(=O)c1nn(C)c2c1COc1ccc(I)cc1-2`, the concentration in solution in series [1] (solubility) was 3 µM (≈ 1.59 µg/mL).
In [1], `CC(=O)NCCN(Cc1ccccc1)C(=O)c1nn(C)c2c1COc1ccc(Br)cc1-2` had a solubility of 73 µM (≈ 35.3 µg/mL).
Same read-out and setting: in the case of `CC(=O)NCCN(Cc1ccccc1F)C(=O)c1nn(C)c2c1COc1ccc(Br)cc1-2` it was under 2 µM.
With `CC[C@H]1[C@@H](O)[C@@H]2[C@H](CC[C@]3(C)[C@@H]([C@H](C)CCC(=O)O)CC[C@@H]23)[C@@]2(C)CC[C@@H](O)C[C@@H]12`, in the series with Mus musculus, the outcome was inactive.
With `CC(=O)NCCN(Cc1ccccc1)C(=O)c1nn(C(C)C)c2c1COc1ccc(Br)cc1-2`, the EC50 on Bile acid receptor [2] was 6 µM; on Bile acid receptor [3] it was 2.7 µM.
In the case of `CC(=O)NCCN(Cc1ccccc1)C(=O)c1nn(C)c2c1COc1ccc(Cl)cc1-2`, in series [1], the solubility is over 175 µM.
The term clearance denotes the rate of elimination divided by the concentration. Usually half-life stands for the time needed for the level to fall by half in the phase considered. A higher half-life goes with slow decline. As a reminder, the bioavailability is the share of a dose that reaches the circulation, judged against a reference dose that is usually intravenous. As to `Cn1nc(C(=O)N(CC(=O)Nc2cc(C(=O)O)ccc2F)Cc2cccc(F)c2)c2c1-c1cc(F)ccc1OC2`, in [1], the solubility was 46 µM (≈ 25.3 µg/mL). Moreover, in series [4], the permeability turned out to be 86%. The clearance in series [5] is 9.6 mL/min/kg. The Vd in series [6] was 1.6 L/kg. This compound gave a half-life in [7] of 3.6 h. Moreover, the bioavailability came out at 36% in series [8], 5% in series [9], 56% in series [10] and 28% in series [11].
As for `Cn1nc(C(=O)N(CCNc2cc(C(=O)O)ccc2F)Cc2cccc(F)c2)c2c1-c1cc(F)ccc1OC2`, the solubility in series [1] was over 175 µM. Besides, in [4], the permeability is 96%. In series [5], this compound yielded a clearance of 19.9 mL/min/kg. Besides, in [6], the Vd came to 1.43 L/kg. The half-life in series [7] is 1.97 h. The bioavailability in series [8] was 22%; in series [9] it was 17%; in series [10], 15%; in series [11], 12%.
Usually logD stands for the decadic logarithm of the distribution of all forms, ionised or not, between an organic phase and buffer at a given pH. Read a high logD as higher lipophilicity. Compound `O=C(O)c1cc(F)c2nc(N3[C@@H]4CC[C@H]3C[C@@H](OCc3c(-c5ccccc5OC(F)(F)F)noc3C3CC3)C4)sc2c1` [TROPIFEXOR] came in with a solubility in series [1] of 110 µM (≈ 66.4 µg/mL). The logD in series [12] stood at 3.2.
